The values that follow are results of earlier work, collected in US20250009687A1, “COMPOSITIONS AND METHODS USING A COMBINATION OF NUTRIENTS TO SUPPORT COGNITION AND EMOTIONAL HEALTH IN A MAMMAL” (SOCIETE DES PRODUITS NESTLE S.A., priority 2021, published 2025).

This data set relates to TFEB. The following applies: Fu X. et al., Experimental Neurology 2021.

Structures are written as SMILES.

Take `C[C@@H]1O[C@@H](O[C@H]2[C@H](O[C@H]3C[C@]4(C)[C@H](C[C@@H](O)[C@@H]5[C@@H]([C@]6(C)CC[C@H](C(C)(C)O)O6)CC[C@]54C)[C@@]4(C)CC[C@H](O)C(C)(C)[C@H]34)O[C@H](CO)[C@@H](O)[C@@H]2O)[C@H](O)[C@H](O)[C@H]1O` [PF11]: the neuroprotection entry is given as “neuroprotective”. Under “acting through TFEB”, the “Lamp1 and Ctsd mRNA” value is given as “increase”.
